Measurements: the supplement of paper PMC10307832

Legend:
Assay in all cases: relative viability (nuclei count vs DMSO), 5 days (fraction); higher = more cells survive
A-427 = test system: A-427
Method in brief: (§1)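 Relative viability is defined as nuclei in treated wells over nuclei in vehicle wells. Duplicate plates were run and medians reported. Lung cancer cell lines in 1536-well plates were dosed by pin tool one day after seeding, with one drug or with a fixed anchor-drug dose plus five library-drug doses (not always all listed) in √10 steps, and nuclei were counted after 5 days.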

ABC-1 = test system: ABC-1
Method in brief: as §1

BEN = test system: BEN
Method in brief: as §1

HARA = test system: HARA
Method in brief: as §1

LCLC-103H = test system: LCLC-103H
Method in brief: as §1

LK-2 = test system: LK-2
Method in brief: as §1

LOU-NH91 = test system: LOU-NH91
Method in brief: as §1

LU99A = test system: LU99A
Method in brief: as §1

LXF-289 = test system: LXF-289
Method in brief: as §1

NCI-H1437 = test system: NCI-H1437
Method in brief: as §1

NCI-H1666 = test system: NCI-H1666
Method in brief: as §1

NCI-H1755 = test system: NCI-H1755
Method in brief: as §1

NCI-H1793 = test system: NCI-H1793
Method in brief: as §1

NCI-H1993 = test system: NCI-H1993
Method in brief: as §1

NCI-H2085 = test system: NCI-H2085
Method in brief: as §1

NCI-H2170 = test system: NCI-H2170
Method in brief: as §1

NCI-H2342 = test system: NCI-H2342
Method in brief: as §1

NCI-H23 = test system: NCI-H23
Method in brief: as §1

NCI-H2405 = test system: NCI-H2405
Method in brief: as §1

NCI-H3122 = test system: NCI-H3122
Method in brief: as §1

NCI-H661 = test system: NCI-H661
Method in brief: as §1

PC-14 = test system: PC-14
Method in brief: as §1

RERF-LC-KJ = test system: RERF-LC-KJ
Method in brief: as §1

## Oc1nc(-c2ccc(C(F)(F)F)cc2)nc2c1CSCC2 [XAV939] + O=C(c1cc(Cc2n[nH]c(=O)c3ccccc23)ccc1F)N1CCN(C(=O)C2CC2)CC1 [Olaparib] (partner 8 µM)
A-427; first compound 0.08 µM
  relative viability: 0.785
A-427; first compound 0.253 µM
  relative viability: 0.584
A-427; first compound 0.8 µM
  relative viability: 0.706
A-427; first compound 2.53 µM
  relative viability: 0.663
ABC-1; first compound 0.253 µM
  relative viability: 0.792
ABC-1; first compound 0.8 µM
  relative viability: 1.25
ABC-1; first compound 2.53 µM
  relative viability: 0.61
BEN; first compound 0.08 µM
  relative viability: 1.14
BEN; first compound 0.253 µM
  relative viability: 1.04
BEN; first compound 0.8 µM
  relative viability: 1.02
BEN; first compound 2.53 µM
  relative viability: 0.845
HARA; first compound 0.08 µM
  relative viability: 0.832
HARA; first compound 0.253 µM
  relative viability: 0.862
HARA; first compound 0.8 µM
  relative viability: 0.759
HARA; first compound 2.53 µM
  relative viability: 0.661
LCLC-103H; first compound 0.08 µM
  relative viability: 0.833
LCLC-103H; first compound 0.253 µM
  relative viability: 0.691
LCLC-103H; first compound 0.8 µM
  relative viability: 0.725
LCLC-103H; first compound 2.53 µM
  relative viability: 0.767
LK-2; first compound 0.08 µM
  relative viability: 0.607
LK-2; first compound 0.253 µM
  relative viability: 0.669
LK-2; first compound 0.8 µM
  relative viability: 0.84
LK-2; first compound 2.53 µM
  relative viability: 0.657
LOU-NH91; first compound 0.08 µM
  relative viability: 0.923
LOU-NH91; first compound 0.253 µM
  relative viability: 0.834
LOU-NH91; first compound 0.8 µM
  relative viability: 0.908
LOU-NH91; first compound 2.53 µM
  relative viability: 0.887
LU99A; first compound 0.08 µM
  relative viability: 0.258
LU99A; first compound 0.253 µM
  relative viability: 0.257
LU99A; first compound 0.8 µM
  relative viability: 0.271
LU99A; first compound 2.53 µM
  relative viability: 0.258
LXF-289; first compound 0.08 µM
  relative viability: 1.13
LXF-289; first compound 0.253 µM
  relative viability: 1.05
LXF-289; first compound 0.8 µM
  relative viability: 1.08
LXF-289; first compound 2.53 µM
  relative viability: 1.07
NCI-H1437; first compound 0.08 µM
  relative viability: 0.631
NCI-H1437; first compound 0.253 µM
  relative viability: 0.593
NCI-H1437; first compound 0.8 µM
  relative viability: 0.558
NCI-H1437; first compound 2.53 µM
  relative viability: 0.355
NCI-H1666; first compound 0.08 µM
  relative viability: 0.748
NCI-H1666; first compound 0.253 µM
  relative viability: 0.741
NCI-H1666; first compound 0.8 µM
  relative viability: 0.745
NCI-H1666; first compound 2.53 µM
  relative viability: 0.754
NCI-H1755; first compound 0.08 µM
  relative viability: 0.798
NCI-H1755; first compound 0.253 µM
  relative viability: 0.767
NCI-H1755; first compound 0.8 µM
  relative viability: 0.816
NCI-H1755; first compound 2.53 µM
  relative viability: 0.733
NCI-H1793; first compound 0.08 µM
  relative viability: 1.15
NCI-H1793; first compound 0.253 µM
  relative viability: 0.707
NCI-H1793; first compound 0.8 µM
  relative viability: 0.916
NCI-H1793; first compound 2.53 µM
  relative viability: 0.646
NCI-H1993; first compound 0.08 µM
  relative viability: 1.01
NCI-H1993; first compound 0.253 µM
  relative viability: 0.87
NCI-H1993; first compound 0.8 µM
  relative viability: 1.1
NCI-H1993; first compound 2.53 µM
  relative viability: 1.16
NCI-H2085; first compound 0.08 µM
  relative viability: 0.782
NCI-H2085; first compound 0.253 µM
  relative viability: 0.719
NCI-H2085; first compound 0.8 µM
  relative viability: 0.742
NCI-H2085; first compound 2.53 µM
  relative viability: 0.761
NCI-H2170; first compound 0.08 µM
  relative viability: 0.56
NCI-H2170; first compound 0.253 µM
  relative viability: 0.451
NCI-H2170; first compound 0.8 µM
  relative viability: 0.5
NCI-H2170; first compound 2.53 µM
  relative viability: 0.402
NCI-H2342; first compound 0.08 µM
  relative viability: 0.47
NCI-H2342; first compound 0.253 µM
  relative viability: 0.431
NCI-H2342; first compound 0.8 µM
  relative viability: 0.376
NCI-H2342; first compound 2.53 µM
  relative viability: 0.288
NCI-H23; first compound 0.08 µM
  relative viability: 0.323
NCI-H23; first compound 0.8 µM
  relative viability: 0.278
NCI-H23; first compound 2.53 µM
  relative viability: 0.264
NCI-H2405; first compound 0.08 µM
  relative viability: 0.974
NCI-H2405; first compound 0.253 µM
  relative viability: 0.824
NCI-H2405; first compound 0.8 µM
  relative viability: 0.797
NCI-H2405; first compound 2.53 µM
  relative viability: 0.766
NCI-H3122; first compound 0.08 µM
  relative viability: 0.706
NCI-H3122; first compound 0.253 µM
  relative viability: 0.574
NCI-H3122; first compound 0.8 µM
  relative viability: 0.538
NCI-H3122; first compound 2.53 µM
  relative viability: 0.468
NCI-H661; first compound 0.08 µM
  relative viability: 0.743
NCI-H661; first compound 0.253 µM
  relative viability: 0.655
NCI-H661; first compound 0.8 µM
  relative viability: 0.678
NCI-H661; first compound 2.53 µM
  relative viability: 0.708
PC-14; first compound 0.08 µM
  relative viability: 0.305
PC-14; first compound 0.253 µM
  relative viability: 0.208
PC-14; first compound 0.8 µM
  relative viability: 0.313
PC-14; first compound 2.53 µM
  relative viability: 0.248
RERF-LC-KJ; first compound 0.08 µM
  relative viability: 0.868
RERF-LC-KJ; first compound 0.253 µM
  relative viability: 0.763
RERF-LC-KJ; first compound 0.8 µM
  relative viability: 0.617
RERF-LC-KJ; first compound 2.53 µM
  relative viability: 0.292
